Columns and labels:
[1] = tested on: MCF-7 mammary cancer cell; assay: MCF-7 mammary cancer cell proliferation ([3H]thymidine incorporation), stimulated by 3% serum; format: cell-based
Method: (§1) FIG. 1. […] MCF-7 mammary cancer cell were preincubated for 24 hours in 0.5% serum and then growth ([^3H]thymidine incorporation) was stimulated by 3% serum. Stimulated cells were treated for 3 days with the indicated concentrations of the astaxanthin alone or in combination with 0.3 μM lycopene (FIG. 1A). The high concentrations of lycopene and astaxanthin (FIG. 1B) are indicated. Data presented are the mean±SE of 2-3 independent experiments performed in quadruplicates.
as §1, with “FIG. 4.” for “FIG. 1.”, “the phytoene and phytofluene (phytoene) mixture” for “the astaxanthin”, “(FIG. 4A).” for “(FIG. 1A).”, “and phytoene plus phytofluene” for “and astaxanthin”, “(FIG. 4B)” for “(FIG. 1B)”
FIG. 5. […] MCF-7 mammary cancer cell were preincubated for 24 hours in 0.5% serum and then growth ([^3H]thymidine incorporation) was stimulated by 3% serum. Stimulated cells were treated for 3 days with the indicated concentrations Of the beta-carotene alone or in combination with 0.3 μM lycopene (FIG. 5A). The high concentrations of lycopene and beta-carotene (FIG. 5B) are indicated. Data presented are the mean±SE of 2-3 independent experiments performed in quadruplicates.

[2] = up to levels of 4 μM; cited from earlier work
[3] = subjects receiving high supplementation of lycopene; cited from earlier work
[4] = tested on: LNCaP prostate cancer cell; assay: DHT induced LNCaP prostate cancer cell proliferation ([3H]thymidine incorporation); format: cell-based; settings: 3 days
Method: FIG. 2. […] LNCaP prostate cancer cell were preincubated for 24 hours in 1.5% serum and then growth ([^3]thymidine incorporation) was stimulated by addition of […] (DHT). Stimulated cells were treated for 3 days with the indicated concentrations of the phytoene and phytofluene (phytoene) mixture alone or in combination with 0.3 μM Lycopene (plus lycopene) (FIG. 2A). The high concentrations of lycopene and phytoene plus phytofluene (FIG. 2B) are indicated. Data presented are the mean±SE of 2-3 independent experiments performed in quadruplicates.
FIG. 3. […] LNCaP prostate cancer cell were preincubated for 24 hours in 1.5% serum and then growth ([^3]thynidine incorporation) was stimulated by addition of 10^−9 M dihydrotestosterone DHT). Stimulated cells were treated for 3 days with the indicated concentrations of the beta-carotene alone or in combination with 0.3 μM lycopene (FIG. 3A). The high concentrations of lycopene and beta-carotene (FIG. 3B) are indicated. Data presented are the mean±SE of 2-3 independent experiments performed in quadruplicates.

[5] = tested on: UV-B induced tumors; settings: mice treated with phytoene; cited from earlier work
[6] = tested on: dimethylbenz(a)anthracene(DMBA)/UV-B induced tumors; settings: mice; cited from earlier work
[7] = tested on: H-ras-induced cell transformation; settings: mammalian cells producing phytoene; cited from earlier work

SMILES	effect of lycopene on the inhibitory effects of astaxanthin on mammary cancer cell proliferation ([1]; MCF-7, 0.3 μM lycopene combined with astaxanthin, 3 days, FIG. 1)	effect of lycopene on the inhibitory effects of beta-carotene on mammary cancer cell proliferation ([1]; MCF-7, 0.3 μM lycopene combined with beta-carotene, 3 days, FIG. 5)	effect of lycopene on the inhibitory effects of phytoene and phytofluene on mammary cancer cell proliferation ([1]; MCF-7, 0.3 μM lycopene combined with phytoene and phytofluene mixture, 3 days, FIG. 4)	decrease in proliferation ([1]; breast cancer cells, lycopene alone at low concentration (0.3 μM))	concentration of lycopene alone giving the same dramatic inhibition of cancer cells as the combination ([1]; lycopene alone) [µM]	in-vitro activity with increasing concentration [2]	serum concentration plateau [3] [nM]	effect of lycopene on the inhibitory effects of beta-carotene on DHT induced prostate cancer cell proliferation ([4]; 0.3 μM lycopene combined with beta-carotene, FIG. 3)	effect of lycopene on the inhibitory effects of phytoene and phytofluene on DHT induced prostate cancer cell proliferation ([4]; 0.3 μM lycopene combined with phytoene and phytofluene mixture, FIG. 2)	UV-B induced tumors developed versus control mice [5]	treating DMBA/UV-B induced tumors [6]	resistance to H-ras-induced cell transformation [7]
CC(C)=CCC/C(C)=C/C=C/C(C)=C/C=C/C(C)=C/C=C/C=C(C)/C=C/C=C(C)/C=C/C=C(\C)CCC=C(C)C [lycopene]	enhances the inhibitory effects	enhances the inhibitory effects	enhances the inhibitory effects	no decrease in proliferation	2 to 3	improved activity with the increase of concentration	1000 to 1200	enhances the inhibitory effects	enhances the inhibitory effects			
CC(C)=CCC/C(C)=C/CC/C(C)=C/CC/C(C)=C/C=C/C=C(\C)CC/C=C(\C)CC/C=C(\C)CCC=C(C)C [phytoene]										fewer UV-B induced tumors than the control mice	ineffective	displayed resistance

Reference: patent publication US20040259959A1, “Method and pharmaceutical preparation for reducing the activity of cells” (priority 2001, published 2004)
